Assay results taken from paper PMC5147771, “High-Resolution Genetics Identifies the Lipid Transfer Protein Sec14p as Target for Antifungal Ergolines” (PLoS Genetics, 2016).
pIC50: −log10 of the molar value. Where two headings read alike, the source gives them in different places.

Legend:
[1] = tested on: 512 human cancer cell lines; assay: Cancer Cell Line Encyclopedia proliferation assay; assay type: cell-based
Source text: (§1) One key requirement of antifungal medicines is selective inhibition of the pathogen over the mammalian host. To explore potential undesired activity of NGx04 against mammalian cells we used the Cancer Cell Line Encyclopedia CCLE, a collection of 512 human cancer cell lines (broadinstitute.org/ccle). Dose-response curves for NGx04 were generated in a proliferation assay and IC50 values determined. […] Since HepG2 cells are known to be a suitable tool to profile toxicity of compounds [40], we used this liver-derived line to assess cytotoxicity of NGx04. […] 16 of 21 amino acid residues within a 5 Å radius from any atom of the docked Ngx04 ligand were not conserved between the two proteins. Critical differences in the active site of the human protein are the residues F178, C128, I151 and L186 (corresponding to S201, Y151, T175 and M209 in yeast) which form a smaller and more hydrophobic pocket compared to the yeast protein (Fig 4C). […]
(§2) Fig 4 Fungal selectivity. […] A) Dose-response curves for NGx04 were generated in growth inhibition assay and IC50 values determined in duplicates. […]
(§3) Profiling across the Cancer Cell Line Encyclopedia was performed as described previously. MTS toxicity was determined using a CellTiter 96 AQueous One Solution Cell Proliferation Assay kit from Peomega.

S. cerevisiae BY4741 = assay: Phosphatidylinositol (PI) and phosphatidylcholine (PC) competition growth assay; assay type: cell-based; conditions: medium with 200 μM PI or 200 μM PC
Source text: To test this hypothesis, the S. cerevisisae x-ray structure of Sec14p was used to dock the NGx04 ligand into the lipid-binding cavity (Fig 3B). In the resulting docking model, the ester moiety of the ligand formed an H-bond with Y111 while the ergoline amine formed an H-bond with T175. The ergoline moiety also made van der Waals interactions with the residues Y122, Y151, S173, M177 and F212. The calculated docking model was in agreement with the experimental data from the mutagenesis study, as three of the four identified resistance conferring mutations were directly involved in ligand interactions (Y111, Y151 and S173) and the identified V154 residue, although not directly involved in ligand interactions, was only 4.5 Å away from NGx04. The model outlines that a larger residue at this position like Isoleucine would be deleterious for ligand binding. As our docking experiment was biased towards the lipid-binding cavity we aimed at further supporting evidence for NGx04 binding in this protein pocket. To do so we tested if NGx04 would compete for phospholipid-binding in the Sec14p cavity. […]
S. cerevisiae BY4741 (Open Biosystems) was grown in YPD medium in the absence or presence of additional phosphatidylinositol or phosphatidylcholine (200 μM each, Sigma-Aldrich 79401 or P3556, respectively). OD600 values of exponentially growing yeast cultures were recorded with a robotic system. […]

MTS cytotoxicity assay = assay type: cell-based; conditions: human, HepG2 cells, triplicates, logistic regression
Source text: as §1, §2, §3

S. cerevisiae = assay: High-throughput screen of compound archive against S. cerevisiae; assay type: cell-based; conditions: Saccharomyces cerevisiae; validated hit of high-throughput screen
[2] = tested on: S. cerevisiae deletion strains; assay: Single strain growth inhibition of deletion strains (turbidity OD600); assay type: cell-based; conditions: Saccharomyces cerevisiae, 24 h
C. neoformans ATCC 90113 = assay: C. neoformans growth inhibition (CLSI M27-A3 broth microdilution); assay type: cell-based; conditions: 72 h, triplicate values printed singly; for MIC: Cryptococcus neoformans, ATCC90113, 72 h
Source text: (§4) Sec14p is reported to be essential for virulence as well as for growth in C. neoformans. The S. cerevisiae and C. neoformans proteins show 53% similarity by pair-wise alignment with higher conservation of the residues in the lipid-binding pocket (S2 Fig). Furthermore, three of the four sites identified to be critical for NGx04 sensitivity, are conserved (S2 Fig). In combination with the current high unmet medical need related to Cryptococcus infections we prioritized testing of NGx04 and 18 related ergoline scaffold analogs against this pathogen. Two clinical isolates of C. neoformans (ATCC 36556 and ATCC 90113) were plated in triplicates on increasing drug concentrations and MIC-2 (50% inhibition) and MIC-0 (no visible fungal growth) concentrations were scored after 72 hrs. (Fig 5).
(§5) C. neoformans strains ATCC 36556, a lung isolate, and ATCC 90113, a cerebrospinal fluid isolate, were purchased from ATCC, Manassas, VA (USA). BPY22 was obtained from.
(§6) Antifungal susceptibility testing was conducted according to the Clinical and Laboratory Standards Institute (CLSI) guidelines for broth microdilution assay M27-A3. Testing was performed in RPMI-1640 (HyClone) with 2.05 mM glutamine, phenol red, without bicarbonate and buffered with 0.165 mol/l 3-(N-morpholino) propanesulfonic acid (MOPS). The medium was adjusted to pH 7.0 and sterilized with a 0.2 μm filter. Two endpoints were recorded: MIC-0 (complete inhibition with no visible fungal growth) and MIC-2 (prominent inhibition corresponding to >50% growth reduction).

C. neoformans ATCC 36556 = assay: as above; assay type: cell-based; conditions: for MIC: Cryptococcus neoformans, ATCC36556, 72 h
Source text: as §4, §5, §6

[3] = tested on: wild type yeast carrying plasmid SEC14 variants; assay: Growth inhibition titration of yeast re-transformed with plasmids coding for SEC14 variants; conditions: Saccharomyces cerevisiae, 18 h
Experimental: A plasmid containing the wild type copy of SEC14 was used as control to exclude resistance due to SEC14 gene copy-number effects.
B) The plasmids coding for various SEC14 proteins were re-transformed into a fresh wild type yeast strain and serial dilutions of the cultures spotted on either 150 μM of NGx04 or DMSO control, incubated for 3 days at 30°C and scored for growth. C) The strains were grown for 24 h in the presence of increasing concentrations of NGx04 and growth measured by turbidity (OD600). Duplicate values were determined and the 18 h time point was used for logistic regression.

[4] = Artificial membrane permeability assay; assay type: in vitro ADME; conditions: PAMPA, to assess blood brain barrier penetration
Experimental: Invasion of the central nervous system by C. neoformans is a prerequisite for fungal meningitis. We thus performed artificial membrane permeability assays in order to assess the potential of the cryptococcal active compounds to penetrate the blood brain barrier (S7 Fig). […] High permeability of ergolines is expected, as members of the ergoline class are used as psychedelic narcotics since their discovery.
Metabolic stability was determined as described previously on a fully automated platform, the artificial membrane permeability assays was performed as described previously
Supplementary file pgen.1006374.s007.eps: S7 Fig Physicochemical properties of ergolines. Rat liver microsome and artificial membrane permeability assay. NGx04 and close analogues were tested for metabolic stability (CYP MetCL) and artificial membrane permeability (logPAMPA) in duplicates. Value pairs are color coded and binning is indicated. (EPS) Click here for additional data file.

[5] = 50% inhibition, read-out: ATCC90113 MIC-2
[6] = no visible fungal growth, read-out: ATCC90113 MIC-0
[7] = 50% inhibition, 72 h, triplicate values printed singly, read-out: ATCC36556 MIC-2
[8] = no visible fungal growth, 72 h, triplicate values printed singly, read-out: ATCC36556 MIC-0

COC(=O)C1CC2c3ccc([N+](=O)[O-])c4c3C(CC2N(C)C1)CN4C(=O)OCC(Cl)(Cl)Cl (stereo not drawn) [NGx04]
cell lines sensitive ([1]; share of cell lines, sensitive defined by Amax <50% and IC50 <30 μM): one fourth | cell lines not notably affected / not significantly inhibited ([1]; share of the tested CCLE cell lines): 76% | effect of excess PI or PC on growth inhibition (S. cerevisiae BY4741): alleviate NGx04-mediated growth inhibition | pIC50 (MTS cytotoxicity assay): 3.80 | pIC50 (S. cerevisiae): > 4.70 | pIC50 ([2]; read-out: IC50, strain KES1/kes1): 4.72 | pIC50 ([2]; read-out: IC50, strain SEC14/sec14): 5.20 | pIC50 ([2]; read-out: IC50, strain ho/ho): 4.93 | pIC50 ([2]; read-out: IC50, strain itr1/itr1): 5.28 | pIC50 ([2]; read-out: IC50, strain spo14/spo14): 5.36 | pIC50 ([2]; read-out: IC50, strain srf1/srf1): 5.42 | MIC (C. neoformans ATCC 90113; [5]): 25 µg/mL | MIC (C. neoformans ATCC 90113; [6]): > 50 µg/mL | MIC (C. neoformans ATCC 36556; [7]): 25 µg/mL | MIC (C. neoformans ATCC 36556; [8]): 50 µg/mL | C. neoformans growth inhibition (in words) (C. neoformans ATCC 36556; clinical isolates ATCC 36556 and ATCC 90113, tested dose range): inhibit C. neoformans growth | ATCC36556 MIC-0 (C. neoformans ATCC 36556; no visible fungal growth, 72 h, triplicate values printed singly): > 50 µg/mL | pIC50 ([3]; read-out: IC50, SEC14 S173A): 3.50 | pIC50 ([3]; read-out: IC50, SEC14 V154I): 3.65 | pIC50 ([3]; read-out: IC50, SEC14 WT plasmid): 4.39

CC(C)N1CC(C(=O)O)CC2c3cccc4c3C(CC21)CN4C(=O)OC(C)(C)C (stereo not drawn) [NGx13]
ATCC90113 MIC-2 (C. neoformans ATCC 90113; 50% inhibition): 50 µg/mL | MIC (C. neoformans ATCC 90113; [5]): > 50 µg/mL | MIC (C. neoformans ATCC 90113; [6]): > 50 µg/mL | ATCC36556 MIC-2 (C. neoformans ATCC 36556; 50% inhibition, 72 h, triplicate values printed singly): 13 µg/mL | MIC (C. neoformans ATCC 36556; [7]): 25 µg/mL | MIC (C. neoformans ATCC 36556; [8]): > 50 µg/mL | artificial membrane permeability [4]: exception
